The source of these data is publication PMC12136037, “Type II kinase inhibitors that target Parkinson’s disease–associated LRRK2” (Science Advances, 2025).

Test in all cases: DSF 100 kinase selectivity screen;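 note: compound tested at 20 µM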
What all share (assay type): binding

Test [1] addresses T1, ~100 representative kinases (Homo sapiens, UniProt Q8IU85).
T1 construct: Recombinant protein kinase domains with a concentration of 2 μM
As to conditions: Protein CAMK1D; average of three replicates. In outline:
(§1)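 Each kinase domain, at 2 μM, is mixed with 20 μM test compound and SYPRO Orange in Hepes (20 mM, pH 7.5) with 500 mM NaCl. Temperature is then raised at 3°C/min and fluorescence-monitored unfolding yields the melting temperature change, ΔTm in degrees Celsius.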

In test [2] the target is T2, ~100 representative kinases (Homo sapiens, UniProt Q9UEW8).
T2 construct: Recombinant protein kinase domains with a concentration of 2 μM
As to conditions: Protein STK39; DSF; average of three replicates. In outline: as §1

In test [3] the target is T3, ~100 representative kinases (Homo sapiens, UniProt O15264).
T3 construct: Recombinant protein kinase domains with a concentration of 2 μM
T3 sequence (O15264 1-365): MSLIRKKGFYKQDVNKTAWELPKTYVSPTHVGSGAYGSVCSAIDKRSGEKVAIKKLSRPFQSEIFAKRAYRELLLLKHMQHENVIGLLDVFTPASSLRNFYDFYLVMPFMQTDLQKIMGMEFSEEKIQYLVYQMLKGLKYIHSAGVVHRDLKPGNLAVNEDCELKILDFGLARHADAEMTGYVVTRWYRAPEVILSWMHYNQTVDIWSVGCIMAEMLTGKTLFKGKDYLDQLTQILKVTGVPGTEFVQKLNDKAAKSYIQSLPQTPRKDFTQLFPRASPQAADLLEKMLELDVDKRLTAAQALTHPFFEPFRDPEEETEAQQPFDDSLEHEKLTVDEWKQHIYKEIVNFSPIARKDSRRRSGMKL
As to conditions: protein MAPK13; average of three replicates. In outline:
as §1

In test [4] the target is T4, ~100 representative kinases (Homo sapiens, UniProt Q13188).
T4 construct: Recombinant protein kinase domains with a concentration of 2 μM
T4 sequence (Q13188 1-491): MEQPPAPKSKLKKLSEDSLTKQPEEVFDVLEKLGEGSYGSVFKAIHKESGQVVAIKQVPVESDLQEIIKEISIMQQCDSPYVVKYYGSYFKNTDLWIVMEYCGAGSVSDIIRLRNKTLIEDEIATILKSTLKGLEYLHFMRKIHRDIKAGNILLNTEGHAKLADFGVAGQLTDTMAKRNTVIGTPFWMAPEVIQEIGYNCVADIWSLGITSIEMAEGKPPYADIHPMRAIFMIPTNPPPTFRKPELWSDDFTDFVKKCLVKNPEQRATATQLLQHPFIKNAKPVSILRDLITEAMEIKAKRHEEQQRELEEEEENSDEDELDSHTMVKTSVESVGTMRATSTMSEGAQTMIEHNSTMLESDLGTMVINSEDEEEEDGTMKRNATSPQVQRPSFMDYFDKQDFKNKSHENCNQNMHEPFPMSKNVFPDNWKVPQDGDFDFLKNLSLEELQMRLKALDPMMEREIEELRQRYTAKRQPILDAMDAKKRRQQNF
As to conditions: Protein STK3; DSF; average of three replicates. In outline:
as §1

Test [5] deals with T5, ~100 representative kinases (Homo sapiens, UniProt Q16539).
T5 construct: Recombinant protein kinase domains with a concentration of 2 μM
As to conditions: protein MAPK14; average of three replicates. In outline:
as §1

For test [6], the target named is T6, ~100 representative kinases (Homo sapiens, UniProt Q13153).
T6 construct: Recombinant protein kinase domains with a concentration of 2 μM
The settings on record: protein PAK1; average of three replicates. The method, boiled down:
as §1

In test [7] the target is T7, ~100 representative kinases (Homo sapiens, UniProt Q96PY6).
T7 construct: Recombinant protein kinase domains with a concentration of 2 μM
T7 sequence (Q96PY6 1-1258): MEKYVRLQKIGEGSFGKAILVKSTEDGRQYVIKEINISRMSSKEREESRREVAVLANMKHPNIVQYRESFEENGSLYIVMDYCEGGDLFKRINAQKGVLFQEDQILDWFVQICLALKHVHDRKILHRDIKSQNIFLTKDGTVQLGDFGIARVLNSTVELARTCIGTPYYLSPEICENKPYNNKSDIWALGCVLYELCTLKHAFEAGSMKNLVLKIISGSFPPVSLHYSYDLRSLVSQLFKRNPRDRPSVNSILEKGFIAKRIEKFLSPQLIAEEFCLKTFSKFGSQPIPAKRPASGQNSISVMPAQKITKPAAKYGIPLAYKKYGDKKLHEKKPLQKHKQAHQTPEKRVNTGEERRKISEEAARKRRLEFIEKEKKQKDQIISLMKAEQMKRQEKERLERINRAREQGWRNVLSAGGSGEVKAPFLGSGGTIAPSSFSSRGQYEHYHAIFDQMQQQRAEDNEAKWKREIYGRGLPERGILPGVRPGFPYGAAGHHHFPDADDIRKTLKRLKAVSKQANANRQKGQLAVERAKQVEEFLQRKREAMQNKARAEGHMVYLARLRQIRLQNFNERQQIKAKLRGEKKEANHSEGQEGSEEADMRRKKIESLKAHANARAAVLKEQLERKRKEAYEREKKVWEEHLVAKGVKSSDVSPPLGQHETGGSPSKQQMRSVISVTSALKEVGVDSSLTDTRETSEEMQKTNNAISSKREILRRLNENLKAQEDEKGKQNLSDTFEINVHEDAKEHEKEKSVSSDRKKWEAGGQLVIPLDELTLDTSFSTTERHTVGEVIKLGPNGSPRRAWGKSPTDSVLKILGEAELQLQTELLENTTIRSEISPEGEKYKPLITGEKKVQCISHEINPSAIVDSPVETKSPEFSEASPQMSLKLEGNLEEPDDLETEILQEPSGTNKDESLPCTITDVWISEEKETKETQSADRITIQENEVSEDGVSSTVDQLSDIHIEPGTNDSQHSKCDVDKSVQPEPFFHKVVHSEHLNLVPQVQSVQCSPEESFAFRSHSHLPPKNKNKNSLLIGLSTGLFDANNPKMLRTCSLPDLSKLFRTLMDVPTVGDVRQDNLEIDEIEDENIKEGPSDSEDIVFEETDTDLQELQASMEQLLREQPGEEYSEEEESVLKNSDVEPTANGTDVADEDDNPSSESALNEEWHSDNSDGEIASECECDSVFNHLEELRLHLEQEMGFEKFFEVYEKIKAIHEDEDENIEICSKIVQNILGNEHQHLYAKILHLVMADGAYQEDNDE
The settings on record: protein NEK1; average of three replicates. In outline: as §1

For test [8], the target named is T8, ~100 representative kinases (Homo sapiens, UniProt P45983).
T8 construct: Recombinant protein kinase domains with a concentration of 2 μM
As to conditions: protein MAPK8; average of three replicates. The method, boiled down:
as §1

For test [9], the target named is T9, ~100 representative kinases (Homo sapiens, UniProt Q9H4A3).
T9 construct: Recombinant protein kinase domains with a concentration of 2 μM
The settings on record: Protein WNK1; DSF; average of three replicates. In outline:
as §1

Test [10] addresses T10, ~100 representative kinases (Homo sapiens, UniProt Q9P289).
T10 construct: Recombinant protein kinase domains with a concentration of 2 μM
The settings on record: protein MST4; average of three replicates. In outline: as §1

T8 sequence (P45983 whole entry, the tested form may be a part): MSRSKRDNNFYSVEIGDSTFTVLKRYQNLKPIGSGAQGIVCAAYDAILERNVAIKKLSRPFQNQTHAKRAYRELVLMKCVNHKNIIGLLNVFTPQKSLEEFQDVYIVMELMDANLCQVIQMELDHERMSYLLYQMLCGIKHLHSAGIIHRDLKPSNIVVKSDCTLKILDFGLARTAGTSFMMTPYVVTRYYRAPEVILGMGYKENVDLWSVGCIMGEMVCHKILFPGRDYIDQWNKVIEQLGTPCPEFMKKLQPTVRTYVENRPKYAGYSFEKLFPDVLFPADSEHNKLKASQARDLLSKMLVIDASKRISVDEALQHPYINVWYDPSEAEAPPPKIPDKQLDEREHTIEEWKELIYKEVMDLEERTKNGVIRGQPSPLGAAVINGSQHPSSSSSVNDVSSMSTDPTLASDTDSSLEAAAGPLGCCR
T6 sequence (Q13153 whole entry, the tested form may be a part): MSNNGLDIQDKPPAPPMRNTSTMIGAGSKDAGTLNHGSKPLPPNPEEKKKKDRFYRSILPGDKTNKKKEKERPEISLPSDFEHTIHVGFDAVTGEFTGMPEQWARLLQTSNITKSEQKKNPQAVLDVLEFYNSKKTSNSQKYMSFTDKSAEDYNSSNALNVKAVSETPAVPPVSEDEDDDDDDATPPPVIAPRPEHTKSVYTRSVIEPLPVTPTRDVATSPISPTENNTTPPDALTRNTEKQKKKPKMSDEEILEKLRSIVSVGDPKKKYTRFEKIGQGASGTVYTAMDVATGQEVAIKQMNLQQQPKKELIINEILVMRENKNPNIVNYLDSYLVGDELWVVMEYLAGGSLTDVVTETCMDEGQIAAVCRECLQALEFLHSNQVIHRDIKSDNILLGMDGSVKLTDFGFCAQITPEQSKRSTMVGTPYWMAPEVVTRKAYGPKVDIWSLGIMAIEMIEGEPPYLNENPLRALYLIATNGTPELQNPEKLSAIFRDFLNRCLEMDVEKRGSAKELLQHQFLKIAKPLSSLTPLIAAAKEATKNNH
T5 sequence (Q16539 whole entry, the tested form may be a part): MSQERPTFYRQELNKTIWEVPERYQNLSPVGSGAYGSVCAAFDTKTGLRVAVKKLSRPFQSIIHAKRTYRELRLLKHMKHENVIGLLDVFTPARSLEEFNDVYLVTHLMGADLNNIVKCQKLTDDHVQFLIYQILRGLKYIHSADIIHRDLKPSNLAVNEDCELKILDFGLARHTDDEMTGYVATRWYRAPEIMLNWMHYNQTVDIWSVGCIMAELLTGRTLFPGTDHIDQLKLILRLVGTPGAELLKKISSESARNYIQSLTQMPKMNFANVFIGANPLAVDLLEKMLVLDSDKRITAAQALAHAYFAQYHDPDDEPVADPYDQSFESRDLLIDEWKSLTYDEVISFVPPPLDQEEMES
T10 sequence (Q9P289 whole entry, the tested form may be a part): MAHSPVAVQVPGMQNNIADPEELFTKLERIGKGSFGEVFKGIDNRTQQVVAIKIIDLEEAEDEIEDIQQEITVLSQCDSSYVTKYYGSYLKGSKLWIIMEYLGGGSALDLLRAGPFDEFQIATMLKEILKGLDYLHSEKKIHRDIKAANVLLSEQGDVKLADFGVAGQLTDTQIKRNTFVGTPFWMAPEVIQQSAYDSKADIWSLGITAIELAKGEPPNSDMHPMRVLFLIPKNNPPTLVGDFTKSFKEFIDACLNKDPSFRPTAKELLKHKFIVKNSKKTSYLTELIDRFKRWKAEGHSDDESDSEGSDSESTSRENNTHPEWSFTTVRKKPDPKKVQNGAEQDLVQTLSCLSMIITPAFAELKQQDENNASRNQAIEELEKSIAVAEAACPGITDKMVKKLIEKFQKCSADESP
T1 sequence (Q8IU85 whole entry, the tested form may be a part): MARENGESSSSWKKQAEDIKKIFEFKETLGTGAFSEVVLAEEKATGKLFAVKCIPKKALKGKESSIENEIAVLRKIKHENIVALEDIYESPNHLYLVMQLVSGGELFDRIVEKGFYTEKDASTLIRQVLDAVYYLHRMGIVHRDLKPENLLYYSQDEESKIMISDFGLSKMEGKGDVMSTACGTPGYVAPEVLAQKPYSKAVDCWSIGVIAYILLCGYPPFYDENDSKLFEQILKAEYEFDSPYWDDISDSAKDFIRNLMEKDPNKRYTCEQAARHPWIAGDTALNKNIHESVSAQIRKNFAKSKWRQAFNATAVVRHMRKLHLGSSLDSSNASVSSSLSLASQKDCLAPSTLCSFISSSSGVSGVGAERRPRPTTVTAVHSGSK
T9 sequence (Q9H4A3 whole entry, the tested form may be a part): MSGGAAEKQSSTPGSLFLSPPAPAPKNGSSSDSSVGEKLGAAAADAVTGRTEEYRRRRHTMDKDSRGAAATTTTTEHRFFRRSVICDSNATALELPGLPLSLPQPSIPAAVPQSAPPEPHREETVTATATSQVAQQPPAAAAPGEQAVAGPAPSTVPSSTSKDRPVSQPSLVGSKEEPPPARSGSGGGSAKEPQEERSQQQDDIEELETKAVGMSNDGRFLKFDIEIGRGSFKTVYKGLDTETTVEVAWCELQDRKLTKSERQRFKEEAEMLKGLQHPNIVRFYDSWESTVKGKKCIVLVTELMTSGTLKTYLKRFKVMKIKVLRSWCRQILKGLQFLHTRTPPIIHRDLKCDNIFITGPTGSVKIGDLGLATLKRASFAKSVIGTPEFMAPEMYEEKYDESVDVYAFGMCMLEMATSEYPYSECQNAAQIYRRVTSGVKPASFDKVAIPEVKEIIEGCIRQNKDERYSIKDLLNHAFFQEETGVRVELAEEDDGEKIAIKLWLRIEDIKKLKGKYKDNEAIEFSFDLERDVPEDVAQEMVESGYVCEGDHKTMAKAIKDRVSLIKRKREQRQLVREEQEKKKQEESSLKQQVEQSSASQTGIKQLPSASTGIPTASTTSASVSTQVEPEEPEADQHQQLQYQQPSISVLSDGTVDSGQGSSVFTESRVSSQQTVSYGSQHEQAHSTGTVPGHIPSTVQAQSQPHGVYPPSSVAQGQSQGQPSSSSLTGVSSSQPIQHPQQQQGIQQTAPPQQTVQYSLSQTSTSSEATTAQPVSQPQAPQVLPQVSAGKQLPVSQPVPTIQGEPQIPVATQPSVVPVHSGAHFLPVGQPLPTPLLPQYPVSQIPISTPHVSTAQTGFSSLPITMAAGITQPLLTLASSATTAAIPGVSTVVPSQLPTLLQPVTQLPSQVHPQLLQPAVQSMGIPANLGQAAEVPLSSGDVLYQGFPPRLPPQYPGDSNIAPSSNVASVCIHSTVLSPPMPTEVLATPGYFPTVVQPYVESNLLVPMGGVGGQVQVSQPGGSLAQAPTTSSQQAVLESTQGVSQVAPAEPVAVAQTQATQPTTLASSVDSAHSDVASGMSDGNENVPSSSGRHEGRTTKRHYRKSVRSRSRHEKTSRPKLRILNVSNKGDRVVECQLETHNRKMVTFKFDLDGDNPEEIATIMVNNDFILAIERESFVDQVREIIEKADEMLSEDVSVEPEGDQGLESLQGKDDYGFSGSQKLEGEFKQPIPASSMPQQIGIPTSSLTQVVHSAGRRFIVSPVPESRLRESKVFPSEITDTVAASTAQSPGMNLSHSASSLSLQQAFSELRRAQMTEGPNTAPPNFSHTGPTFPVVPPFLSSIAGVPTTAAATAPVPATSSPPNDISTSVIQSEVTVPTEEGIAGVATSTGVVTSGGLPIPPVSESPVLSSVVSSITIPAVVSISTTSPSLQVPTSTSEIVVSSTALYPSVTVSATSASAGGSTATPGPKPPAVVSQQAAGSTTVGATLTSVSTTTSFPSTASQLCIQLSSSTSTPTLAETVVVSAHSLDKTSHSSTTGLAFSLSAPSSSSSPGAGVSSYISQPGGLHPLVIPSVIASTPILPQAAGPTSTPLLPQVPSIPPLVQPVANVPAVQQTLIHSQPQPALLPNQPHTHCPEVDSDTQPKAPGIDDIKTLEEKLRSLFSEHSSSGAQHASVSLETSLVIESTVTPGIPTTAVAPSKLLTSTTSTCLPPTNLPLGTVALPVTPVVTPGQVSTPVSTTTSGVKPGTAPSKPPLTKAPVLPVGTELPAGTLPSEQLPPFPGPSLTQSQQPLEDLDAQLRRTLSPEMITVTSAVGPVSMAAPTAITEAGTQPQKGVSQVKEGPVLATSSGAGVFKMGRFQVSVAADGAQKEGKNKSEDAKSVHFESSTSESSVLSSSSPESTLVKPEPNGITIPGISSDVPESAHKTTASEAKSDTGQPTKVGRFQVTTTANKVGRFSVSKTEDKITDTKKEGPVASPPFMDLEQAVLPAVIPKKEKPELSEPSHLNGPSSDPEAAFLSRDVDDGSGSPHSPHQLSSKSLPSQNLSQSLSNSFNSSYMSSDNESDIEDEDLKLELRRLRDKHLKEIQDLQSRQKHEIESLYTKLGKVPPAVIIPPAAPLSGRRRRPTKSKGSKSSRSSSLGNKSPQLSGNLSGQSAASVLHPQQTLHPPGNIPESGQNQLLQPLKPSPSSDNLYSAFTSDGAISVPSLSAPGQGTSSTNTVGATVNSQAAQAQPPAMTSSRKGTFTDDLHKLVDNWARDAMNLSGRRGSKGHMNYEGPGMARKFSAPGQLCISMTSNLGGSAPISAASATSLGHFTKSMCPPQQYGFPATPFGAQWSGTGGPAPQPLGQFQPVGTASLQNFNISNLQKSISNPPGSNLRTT

On to `Cc1ccc(C(=O)Nc2ccc(CN3CCN(C)CC3)c(C(F)(F)F)c2)cc1C#Cc1c[nH]c2ncnc(N3CCOCC3)c12` [Compound 1], for which the dTm in [1] is 0.56 K; in test [2] it was 3.69 K; in test [3], 4.74 K; in [4] it was 10.52 K; in [5], 5.43 K; in test [6] it was 1.52 K. The dTm in test [7] is given as -0.11 K; in [8] it was 2.18 K; in test [9], 1.39 K; in test [10], 4.54 K.

`O=C(Nc1ccc(F)cc1)C1(C(=O)Nc2cccc(-c3c[nH]c4ncnc(N5CCOCC5)c34)c2)CC1` [Compound 2]: the dTm was -1.26 K in test [1]; 1.95 K in test [2]; 9.94 K in test [3]; 7.33 K in test [4]; 0.08 K in test [5]; 2.06 K in test [6]. In addition, the dTm is given as -0.21 K in test [7], 1.17 K in [8], -0.45 K in [9] and 5.41 K in [10].

Regarding `O=C(Nc1cccc(-c2c[nH]c3ncnc(N4CCOCC4)c23)c1)c1cccn(-c2ccc(F)cc2)c1=O` [Compound 4], the dTm in test [1] is reported as -1.98 K; in test [2] it was 4.19 K; in [3] it was 12.71 K; in [4] it was 9.51 K; in [5] it was 1.17 K; in [6], 4.33 K. Further, the dTm in [7] is recorded as -0.47 K; in test [8], 3.47 K; in test [9] it was -0.00745 K; in [10], 1.45 K.

`Cc1cc(NC(=O)C2(C(=O)Nc3ccc(F)cc3)CC2)cc(-c2c[nH]c3ncnc(N4CCOCC4)c23)c1` [Compound 6]: the dTm in [1] is 1.65 K; in [2], 1.36 K; in test [3], 7.75 K; in test [4], 6.70 K; in [5], 1.61 K; in test [6], 1.55 K. Also, the dTm in [7] is -0.00237 K; in test [8], 2.19 K; in test [9] it was 0.73 K; in test [10], 3.15 K.

On to `O=C(Nc1cccc(-c2c[nH]c3ncnc(N4CCOCC4)c23)c1)C1(C(=O)Nc2cccc3c2CCC3)CC1` [Compound 11], for which the dTm in test [1] is on record as 1.59 K; in test [2], 1.05 K; in test [3] it was 6.18 K; in test [4], 4.65 K; in [5], 1.60 K; in test [6], 3.04 K. The dTm in test [7] was -2.39 K; in [8], 2.36 K; in [9], 0.35 K; in [10], 0.22 K.

Regarding `O=C(Nc1ccccc1)C1(C(=O)Nc2cccc(-c3c[nH]c4ncnc(N5CCOCC5)c34)c2)CC1` [Compound 12], the dTm in test [1] was -1.41 K; in test [2] it was 2.09 K; in test [3], 7.89 K; in test [4], 6.83 K; in test [5], 0.0252 K; in test [6], 1.90 K. The dTm is 0.33 K in test [7], 1.81 K in test [8], -0.065 K in test [9] and 3.77 K in [10].

For the molecule `O=C(Nc1ccc(Cl)cc1)C1(C(=O)Nc2cccc(-c3c[nH]c4ncnc(N5CCOCC5)c34)c2)CC1` [Compound 13], the dTm in [1] came to 0.67 K; in test [2], 2.32 K; in test [3], 11.74 K; in test [4], 10.20 K; in [5], 1.55 K; in test [6], 3.82 K. Moreover, the dTm is 0.54 K in test [7], 3.26 K in test [8], 0.30 K in [9] and 5.13 K in test [10].

As for `Cc1ccc(NC(=O)C2(C(=O)Nc3cccc(-c4c[nH]c5ncnc(N6CCOCC6)c45)c3)CC2)cc1` [Compound 14], the dTm in test [1] is given as -1.76 K; in [2], 1.16 K; in test [3], 9.07 K; in [4], 7.94 K; in test [5], 0.29 K; in test [6] it was 2.44 K. In addition, the dTm in [7] turned out to be 0.23 K; in test [8] it was 0.90 K; in [9] it was 0.16 K; in test [10] it was 3.59 K.

In the case of `Cc1ccc(C(=O)Nc2ccc(CN3CCN(C)CC3)c(C(F)(F)F)c2)cc1C#Cc1cnc2cccnn12` [Ponatinib, reference compound], the dTm is reported as 12.52 K in test [5] and 0.42 K in test [7].

`CNC(=O)c1cc(Oc2ccc(NC(=O)Nc3cc(C(C)(C)C)nn3-c3ccc4ncccc4c3)c(F)c2)ccn1` [Rebastinib, reference compound]: the dTm in test [1] worked out at 1.21 K; in test [2], 1.13 K; in test [3], 13.29 K; in test [4] it was 9.02 K; in test [5], 20.84 K; in test [6], 1.98 K. In addition, the values for the dTm in test [7], in test [8] and in [10] were 2.10 K, 1.99 K and 5.29 K, respectively.

With `CN[C@@H]1C[C@H]2O[C@@](C)([C@@H]1OC)n1c3ccccc3c3c4c(c5c6ccccc6n2c5c31)C(=O)NC4` [Staurosporine], the dTm is 9.01 K in test [2]; 8.03 K in test [3]; 16.47 K in test [4]; 7.21 K in [6]; 2.20 K in test [9].
